Data reported in patent publication US7696197B2, “Use of a phenothiazine derivative for preventing and/or treating hearing loss” (Societe de Conseils de Recherches et d'Applications …, priority 2004, dated 2010).

Tested on: neuromast acoustic hair cells
Assay: Ototoxicity induced by gentamicin in zebrafish, DASPEI staining of neuromast acoustic hair cells
Assay type: in vivo
Settings: 24 hours, fish aged 5 days
Source text: Zebrafish display the sensory organs on the surface of their bodies, called neuromasts. In these fish, the neuromast acoustic hair cells can be stained with DASPEI and this staining reflects the number of acoustic hair cells. These acoustic hair cells are structurally and functionally similar to the internal acoustic hair cells of the human ear.
Damage to the internal acoustic hair cells is induced in zebrafish by gentamicin. In order to test the effect of compound (1) on the protection of the acoustic hair cells damaged by gentamicin, the compound (1) was administered as a co-treatment with gentamicin. The internal acoustic hair cells are then stained and quantified.
The study is undertaken on fish aged 5 days incubated with 1 μg/ml of gentamicin for 24 hours in the presence or in the absence of compound (1). Controls are carried out in parallel; single vehicle (1% DMSO; positive control). The fish treated with gentamicin are the negative controls.
DASPEI (2,4-dimethyl-aminostyryl-N-ethyl pyridinium iodide) staining is carried out in order to visualize the acoustic hair cells in vivo (n=5 per group). Morphometric analysis is used in order to quantify the staining signal of the acoustic hair cells. The signal for DASPEI staining of the positive controls was defined as 100%. […]

Substance: gentamicin
- DASPEI staining signal of acoustic hair cells, % of the control signal (gentamicin 1 μg/ml alone (negative control)): 31.5±4.2%
- loss of the acoustic hair cells following treatment with gentamicin (gentamicin 1 μg/ml alone): 68.5±4.9%
